Reference: patent publication US20250171420A1 (Monte Rosa Therapeutics, Inc., priority 2022, published 2025)

Columns and labels:
CRBN/DDB1 = CRBN/DDB1 (Homo sapiens, UniProt Q96SW2); assay: HTRF binding assay (displacement of Cy5-thalidomide probe from CRBN/DDB1); details: CRBN/DDB1 2.5 nM, Cy5-Thalidomide 100 nM, 30 min; geometric mean; read-out: HTRF_Thali_Disp_DR_geo_IC50
Excerpt: Binding of test compounds to CRBN/DDB1 was monitored in an HTRF assay using 1-[5-({2-[2-(2-{[2-(2,6-dioxopiperidin-3-yl)-1,3-dioxo-2,3-dihydro-1H-isoindol-4-yl]oxy}acetamido)ethoxy]ethyl}carbamoyl)pentyl]-3,3-dimethyl-2-[(1E,3E)-5-[(2E)-1,3,3-trimethyl-5-sulfo-2,3-dihydro-1H-indol-2-ylidene]penta-1,3-dien-1-yl]-3H-indol-1-ium-5-sulfonate as a fluorescent probe. In this assay, compounds displace the fluorescently labeled thalidomide-based probe bound to CRBN and fluorescence is monitored with increasing compound concentration. Assays were conducted in Greiner white 384 well HiBase plates (Cat. No 784075-25) in 10 μL total volume. A one pot detection solution of CRBN/DDB1 (2.5 nM), anti-His Terbium Cryptate Gold (1×, PerkinElmer Cat. #: 61HI2TLB), and Cy5-Thalidomide (100 nM, Tenova Cat.: T52461) was prepared in 20 mM HEPES, 20 mM NaCl, 0.2 mM TCEP, 0.2 mM EDTA, and 0.005% Tween20 was dispensed to each assay plate. Test compounds were stored in dry, ambient temperatures at 10 mM. A 10-point, 1:3 dilution series was prepared from 10 mM stock concentrations in Echo-compatible LDV plates. 10 nL of each compound dilution series was dispensed into assays wells using an Echo 650 (Labcyte inc. USA). 10 nL of 10 mM lenalidomide (Selleckchem Cat no. S1029) was transferred into the active-control wells for the assay and 10 nL of DMSO was transferred into the negative control wells. The assay was then allowed to incubate for 30 min at ambient temperature after transferring the test compounds. Plate measurements were taken on a Pherastar FSX (BMG Labtech, Germany) using the HTRF Red filter (Ex. 337 nm, em1: 620 nm, em2: 665 nm) (Flashes: 50, Integration time: 60-400 μs, Z-height: 10 mm, Ratio-multiplier: 10,000). Analysis, HTRF ratio and IC50 values were derived using KNIME analytics (KNIME Zurich) transformation and fitting within Collaborative Drug Discovery (Collaborative Drug Discovery USA) using a 4-parameter logistic fit. HTRF ratio calculation was performed using the following formula: […]
where Y represents the HTRF ratio response (as defined previously), X the compound concentration in μM, Ymin the minimum response plateau, Ymax the maximum response plateau, IC50 the concentration of agonist that gives a response half way between Ymin and Ymax and HillSlope the steepness of the family of curves. No fitting model constraints was applied on Ymin, or Ymax whilst IC50>0 and −0.5>HillSlope>−3
Ki values were derived from the geometric mean of the IC50 values using the Cheng-Prusoff transformation:
where [L] represents the concentration of fluorescent probe in μM, Kd the affinity (binding constant) of the fluorescent probe in units of μM and IC50 the concentration of agonist that gives a response halfway between Ymin and Ymax (as described in 1.2.1)
Analysis and IC50 values were derived using KNIME analytics (KNIME, Zurich) transformation and fitting within Collaborative Drug Discovery (Collaborative Drug Discovery, USA) as described in 1.2.1. Ki values were derived from the geometric mean of the IC50 values using the Cheng-Prusoff transformation as described in 2.2.2. Data was visualized in GraphPad Prism 8.1.2 (GraphPad, USA) and reported as mean and standard deviation. Microsoft Office Excel 2012 (Redmond, WA) was used for calculation of mean and standard deviation.
IC50 data are reported in Table 3 for compounds in Table 1. In Table 3 below, According to the code, A represents a IC50 value of ≤0.1 μM, B represents a IC50 value>0.1 μM and ≤1 μM, C represents an IC50 value>1 μM.

CK1α = molecular target: T1, CK1α (Homo sapiens, UniProt P48729); assay: CK1α NanoBit Assay (HiBiT-tagged CSNK1A1, HEK293 clonal lines); type: cell-based; details: HEK293 HiBiT-CSNK1A1/LgBiT cells, 24 h incubation
T1 construct: HEK293 clonal lines with CRISPR KI HiBiT tag on CSNK1A1
In short: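 HEK293 clones carrying a CRISPR knock-in HiBiT tag on CSNK1A1 and stably expressing LgBiT are treated with compound for 24 hours at 37° C, 5% CO2, then read by luminescence. Response is normalized as 100*(S−N)/(P−N) against plate negative and positive controls, and DC50 values are derived.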

Chain of CRBN/DDB1 (Q96SW2 whole entry, species assumed): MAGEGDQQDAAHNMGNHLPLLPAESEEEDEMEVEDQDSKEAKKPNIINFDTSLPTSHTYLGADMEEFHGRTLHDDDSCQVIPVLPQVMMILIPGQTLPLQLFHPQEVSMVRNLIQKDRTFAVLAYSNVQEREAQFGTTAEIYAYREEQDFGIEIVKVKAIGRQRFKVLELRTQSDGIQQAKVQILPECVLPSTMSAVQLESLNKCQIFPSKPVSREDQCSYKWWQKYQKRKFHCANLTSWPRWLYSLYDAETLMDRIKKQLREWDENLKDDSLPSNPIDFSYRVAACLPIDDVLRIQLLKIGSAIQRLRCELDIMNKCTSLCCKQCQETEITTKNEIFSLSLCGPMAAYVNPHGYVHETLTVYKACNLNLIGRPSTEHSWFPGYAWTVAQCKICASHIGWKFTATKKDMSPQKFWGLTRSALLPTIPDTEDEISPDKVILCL
Chain of CRBN/DDB1 (Q16531 whole entry partner, species assumed): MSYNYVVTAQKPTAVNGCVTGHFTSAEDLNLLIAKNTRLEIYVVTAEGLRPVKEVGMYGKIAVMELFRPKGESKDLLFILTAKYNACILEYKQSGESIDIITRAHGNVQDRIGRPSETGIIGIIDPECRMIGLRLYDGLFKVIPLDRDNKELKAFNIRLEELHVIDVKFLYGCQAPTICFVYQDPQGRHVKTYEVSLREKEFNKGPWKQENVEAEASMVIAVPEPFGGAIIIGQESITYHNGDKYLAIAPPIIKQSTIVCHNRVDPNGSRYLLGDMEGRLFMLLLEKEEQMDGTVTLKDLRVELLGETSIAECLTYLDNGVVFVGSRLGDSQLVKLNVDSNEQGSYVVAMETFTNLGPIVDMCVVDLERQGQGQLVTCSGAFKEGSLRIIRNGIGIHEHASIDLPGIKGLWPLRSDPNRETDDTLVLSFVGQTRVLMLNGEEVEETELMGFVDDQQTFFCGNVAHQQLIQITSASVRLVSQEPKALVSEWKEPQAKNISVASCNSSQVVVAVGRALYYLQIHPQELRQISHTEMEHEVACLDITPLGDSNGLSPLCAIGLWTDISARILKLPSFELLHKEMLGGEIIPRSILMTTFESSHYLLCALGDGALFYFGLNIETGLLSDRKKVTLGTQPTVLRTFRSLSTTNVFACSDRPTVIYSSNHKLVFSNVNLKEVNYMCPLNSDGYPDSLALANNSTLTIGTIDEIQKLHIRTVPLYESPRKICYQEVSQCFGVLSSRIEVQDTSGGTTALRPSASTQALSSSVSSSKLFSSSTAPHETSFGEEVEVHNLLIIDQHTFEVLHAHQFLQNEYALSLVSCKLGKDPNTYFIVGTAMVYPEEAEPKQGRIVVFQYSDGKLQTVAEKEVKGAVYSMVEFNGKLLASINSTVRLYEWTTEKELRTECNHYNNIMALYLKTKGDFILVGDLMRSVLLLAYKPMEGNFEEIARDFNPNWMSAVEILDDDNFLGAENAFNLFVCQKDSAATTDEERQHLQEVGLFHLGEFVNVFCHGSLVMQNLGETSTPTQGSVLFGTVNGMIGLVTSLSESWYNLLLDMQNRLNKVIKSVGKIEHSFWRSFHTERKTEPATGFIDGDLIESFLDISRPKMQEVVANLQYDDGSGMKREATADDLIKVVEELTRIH
T1 sequence (P48729 whole entry): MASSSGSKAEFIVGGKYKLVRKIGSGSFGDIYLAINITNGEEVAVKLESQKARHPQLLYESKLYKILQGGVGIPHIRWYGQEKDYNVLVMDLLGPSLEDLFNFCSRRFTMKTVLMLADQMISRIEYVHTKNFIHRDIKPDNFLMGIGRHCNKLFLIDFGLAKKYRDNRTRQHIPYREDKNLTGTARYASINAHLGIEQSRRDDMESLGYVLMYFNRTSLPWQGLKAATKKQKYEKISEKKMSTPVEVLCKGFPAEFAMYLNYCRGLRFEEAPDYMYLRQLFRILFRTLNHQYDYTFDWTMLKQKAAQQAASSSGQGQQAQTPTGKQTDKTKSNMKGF
T1 sequence (Q96SW2 whole entry, further chain): as the sequence (Q96SW2 whole entry, species assumed) above
T1 sequence (Q16531 2-1140 partner limits assumed): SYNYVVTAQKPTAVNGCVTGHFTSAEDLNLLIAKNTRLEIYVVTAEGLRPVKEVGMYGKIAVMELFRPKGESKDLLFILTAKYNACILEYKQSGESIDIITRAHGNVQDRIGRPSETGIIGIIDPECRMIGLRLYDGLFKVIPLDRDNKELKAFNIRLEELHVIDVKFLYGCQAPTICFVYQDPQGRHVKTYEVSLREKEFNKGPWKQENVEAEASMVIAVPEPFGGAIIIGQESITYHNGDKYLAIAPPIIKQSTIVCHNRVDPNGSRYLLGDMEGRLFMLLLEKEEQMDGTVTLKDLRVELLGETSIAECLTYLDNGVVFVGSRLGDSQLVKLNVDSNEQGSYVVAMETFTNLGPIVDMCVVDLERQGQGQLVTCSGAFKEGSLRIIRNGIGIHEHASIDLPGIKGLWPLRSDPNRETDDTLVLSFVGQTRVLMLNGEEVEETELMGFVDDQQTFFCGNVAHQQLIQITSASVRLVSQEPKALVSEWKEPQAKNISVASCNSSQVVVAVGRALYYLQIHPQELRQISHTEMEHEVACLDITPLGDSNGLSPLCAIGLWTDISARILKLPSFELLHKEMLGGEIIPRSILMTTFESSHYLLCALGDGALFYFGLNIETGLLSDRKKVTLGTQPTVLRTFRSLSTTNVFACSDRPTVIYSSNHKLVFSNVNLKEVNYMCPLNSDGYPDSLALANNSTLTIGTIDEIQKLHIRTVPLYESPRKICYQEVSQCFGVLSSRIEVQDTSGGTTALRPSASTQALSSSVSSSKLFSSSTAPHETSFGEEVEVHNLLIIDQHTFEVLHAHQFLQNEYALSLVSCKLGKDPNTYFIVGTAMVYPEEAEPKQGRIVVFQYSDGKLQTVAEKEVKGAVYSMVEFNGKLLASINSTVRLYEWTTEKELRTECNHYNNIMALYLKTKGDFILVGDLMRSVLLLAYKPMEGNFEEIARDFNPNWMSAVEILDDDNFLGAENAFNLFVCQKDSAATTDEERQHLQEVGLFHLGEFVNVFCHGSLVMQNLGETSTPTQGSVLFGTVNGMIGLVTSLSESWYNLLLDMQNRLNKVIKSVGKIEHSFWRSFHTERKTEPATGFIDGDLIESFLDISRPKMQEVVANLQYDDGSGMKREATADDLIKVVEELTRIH

| Compound | IC50 (CRBN/DDB1) [nM] | DC50 (CK1α) [µM] |
| --- | --- | --- |
| COCC1C2c3ccccc3N(C(=O)Nc3ccc4c(c3)CN(C3CCC(=O)NC3=O)C4=O)C12 (stereo not drawn) [Compound 320, N-(2-(2,6-dioxopiperidin-3-yl)-1-oxoisoindolin-5-yl)-1-(methoxymethyl)-1a, 6b-dihydrocyclopropa[b]indole-2(1H)-carboxamide] | 100 to 1000 | < 0.1 |
| O=C1CCC(N2Cc3cc(NC(=O)N4CCc5ccncc54)ccc3C2=O)C(=O)N1 (stereo not drawn) [Compound 105, N-(2-(2,6-dioxopiperidin-3-yl)-1-oxoisoindolin-5-yl)-2,3-dihydro-1H-pyrrolo[2,3-c]pyridine-1-carboxamide] | 100 to 1000 | < 0.1 |
| NC[C@@H]1Cc2ccccc2N1C(=O)Nc1ccc2c(c1)CN(C1CCC(=O)NC1=O)C2=O (stereo partly drawn) [Compound 310, (2S)-2-(aminomethyl)-N-(2-(2,6-dioxopiperidin-3-yl)-1-oxoisoindolin-5-yl)indoline-1-carboxamide] | 100 to 1000 | 0.1 to 1 |
| CC1(c2ccccc2)CN(C(=O)Nc2ccc3c(c2)CN(C2CCC(=O)NC2=O)C3=O)C1 (stereo not drawn) [Compound 109, N-(2-(2,6-dioxopiperidin-3-yl)-1-oxoisoindolin-5-yl)-3-methyl-3-phenylazetidine-1-carboxamide] | 100 to 1000 | 0.1 to 1 |
| C[C@@H]1Cc2ccccc2N1C(=O)Nc1cc2c(cc1F)C(=O)N(C1CCC(=O)NC1=O)C2 (stereo partly drawn) [Compound 293, (2R)—N-(2-(2,6-dioxopiperidin-3-yl)-6-fluoro-1-oxoisoindolin-5-yl)-2-methylindoline-1-carboxamide] | 100 to 1000 | < 0.1 |
| O=C1CCC(N2Cc3cc(NC(=O)N4c5ccccc5CC4C(F)(F)F)ccc3C2=O)C(=O)N1 (stereo not drawn) [Compound 292, N-(2-(2,6-dioxopiperidin-3-yl)-1-oxoisoindolin-5-yl)-2-(trifluoromethyl)indoline-1-carboxamide] | 100 to 1000 | < 0.1 |
| C[C@@H]1Cc2ccc(F)cc2N1C(=O)Nc1ccc2c(c1)CN(C1CCC(=O)NC1=O)C2=O (stereo partly drawn) [Compound 356, (2R)—N-(2-(2,6-dioxopiperidin-3-yl)-1-oxoisoindolin-5-yl)-6-fluoro-2-methylindoline-1-carboxamide] | 100 to 1000 | < 0.1 |
| O=C1CCC(N2Cc3cc(NC(=O)N4CCc5ccc(-n6cccn6)cc54)ccc3C2=O)C(=O)N1 (stereo not drawn) [Compound 290] | 100 to 1000 | < 0.1 |
| CC(C)C1CN(C(=O)Nc2ccc3c(c2)CN(C2CCC(=O)NC2=O)C3=O)c2ccccc21 (stereo not drawn) [Compound 203, N-(2-(2,6-dioxopiperidin-3-yl)-1-oxoisoindolin-5-yl)-3-isopropylindoline-1-carboxamide] | 100 to 1000 | < 0.1 |
| COC[C@H]1Cc2ccccc2N1C(=O)Nc1ccc2c(c1)CN(C1CCC(=O)NC1=O)C2=O (stereo partly drawn) [Compound 352, (2R)—N-(2-(2,6-dioxopiperidin-3-yl)-1-oxoisoindolin-5-yl)-2-(methoxymethyl)indoline-1-carboxamide] | 100 to 1000 | < 0.1 |
| O=C1CCC(N2Cc3cc(NC(=O)N4CCc5cc(C6CCOC6)ccc54)ccc3C2=O)C(=O)N1 (stereo not drawn) [Compound 345, N-(2-(2,6-dioxopiperidin-3-yl)-1-oxoisoindolin-5-yl)-5-(tetrahydrofuran-3-yl)indoline-1-carboxamide] | < 100 | < 0.1 |
| CC1c2ccccc2CCN1C(=O)Nc1ccc2c(c1)CN(C1CCC(=O)NC1=O)C2=O (stereo not drawn) [Compound 216, N-(2-(2,6-dioxopiperidin-3-yl)-1-oxoisoindolin-5-yl)-1-methyl-3,4-dihydroisoquinoline-2(1H)-carboxamide] | 100 to 1000 | < 0.1 |
| O=C1CCC(N2Cc3cc(NC(=O)N4CCc5cc(C6COC6)ccc54)ccc3C2=O)C(=O)N1 (stereo not drawn) [Compound 346, N-(2-(2,6-dioxopiperidin-3-yl)-1-oxoisoindolin-5-yl)-5-(oxetan-3-yl)indoline-1-carboxamide] | < 100 | < 0.1 |
| COC(C)c1cccc2c1CCN2C(=O)Nc1ccc2c(c1)CN(C1CCC(=O)NC1=O)C2=O (stereo not drawn) [Compound 343, N-(2-(2,6-dioxopiperidin-3-yl)-1-oxoisoindolin-5-yl)-4-(1-methoxyethyl)indoline-1-carboxamide] | 100 to 1000 | < 0.1 |
| COCC1c2ccc(C(F)(F)F)cc2CN1C(=O)Nc1ccc2c(c1)CN(C1CCC(=O)NC1=O)C2=O (stereo not drawn) [Compound 324, N-(2-(2,6-dioxopiperidin-3-yl)-1-oxoisoindolin-5-yl)-1-(methoxymethyl)-5-(trifluoromethyl)isoindoline-2-carboxamide] | 100 to 1000 | < 0.1 |
| N#Cc1ccc2c(c1)N(C(=O)Nc1ccc3c(c1)CN(C1CCC(=O)NC1=O)C3=O)CC2 (stereo not drawn) [Compound 115, 6-cyano-N-(2-(2,6-dioxopiperidin-3-yl)-1-oxoisoindolin-5-yl)indoline-1-carboxamide] | 100 to 1000 | < 0.1 |
| COC[C@H]1CN(C(=O)Nc2ccc3c(c2)CN(C2CCC(=O)NC2=O)C3=O)c2ccc(C(F)(F)F)cc21 (stereo partly drawn) [Compound 319, (3R)—N-(2-(2,6-dioxopiperidin-3-yl)-1-oxoisoindolin-5-yl)-3-(methoxymethyl)-5-(trifluoromethyl)indoline-1-carboxamide] | 100 to 1000 | < 0.1 |
| COC[C@H]1Cc2cc(C(F)(F)F)ncc2N1C(=O)Nc1ccc2c(c1)CN(C1CCC(=O)NC1=O)C2=O (stereo partly drawn) [Compound 295, (2R)—N-(2-(2,6-dioxopiperidin-3-yl)-1-oxoisoindolin-5-yl)-2-(methoxymethyl)-5-(trifluoromethyl)-2,3-dihydro-1H-pyrrolo[2,3-c]pyridine-1-carboxamide] | 100 to 1000 | < 0.1 |
| COCC1c2cc(C(F)(F)F)ccc2CN1C(=O)Nc1ccc2c(c1)CN(C1CCC(=O)NC1=O)C2=O (stereo not drawn) [Compound 301] | 100 to 1000 | < 0.1 |
| CNC(=O)[C@@H]1Cc2ccccc2N1C(=O)Nc1ccc2c(c1)CN(C1CCC(=O)NC1=O)C2=O (stereo partly drawn) [Compound 326, (2S)—N^1-(2-(2,6-dioxopiperidin-3-yl)-1-oxoisoindolin-5-yl)-N^2-methylindoline-1,2-dicarboxamide] | 100 to 1000 | 0.1 to 1 |
| O=C1CC[C@H](N2Cc3cc(NC(=O)N4c5ccccc5C[C@@H]4C(F)(F)F)ccc3C2=O)C(=O)N1 (single isomer, unassigned) [Compound 362] | 100 to 1000 | < 0.1 |
| O=C1CCC(N2Cc3cc(NC(=O)N4CCc5ccc(C6CCC6)cc54)ccc3C2=O)C(=O)N1 (stereo not drawn) [Compound 358, 6-cyclobutyl-N-(2-(2,6-dioxopiperidin-3-yl)-1-oxoisoindolin-5-yl)indoline-1-carboxamide] | 100 to 1000 | < 0.1 |
| O=C1CCC(N2Cc3cc(NC(=O)N4c5ccccc5CC45COC5)ccc3C2=O)C(=O)N1 (stereo not drawn) [Compound 322, N-(2-(2,6-dioxopiperidin-3-yl)-1-oxoisoindolin-5-yl)spiro[indoline-2,3′-oxetane]-1-carboxamide] | 100 to 1000 | < 0.1 |
| O=C1CCC(N2Cc3cc(NC(=O)N4CCc5cc(Cl)ccc54)ccc3C2=O)C(=O)N1 (stereo not drawn) [Compound 197, 5-chloro-N-(2-(2,6-dioxopiperidin-3-yl)-1-oxoisoindolin-5-yl)indoline-1-carboxamide] | > 1000 | < 0.1 |
